Values joined by “and” are separate entries in the source; they are usually repeats but may differ in a detail not shown here. Equal entries are not always repeated.
Test system: patients with treatment-resistant major depressive disorder (TRD)
Experiment: Phase 1/2 clinical trial of inhaled 5-MeO-DMT in TRD patients (12 mg, 18 mg, individualized dosing regimen IDR 6/12/18 mg)
Protocol: Patients were assigned to different groups. In the context of the present invention, the group who received a single, 12 mg dose and the group who underwent an intra-day individualized dosing regimen (IDR) that allowed for multiple, escalating doses (6 mg, 12 mg and 18 mg) within a single day, driven by the intensity of the patient-reported psychedelic experience are of interest.
The data gathered include the assessment of the treated patients against several scales including the Montgomery-Åsberg Depression Rating Scale (MADRS) and the Brief Psychiatric Rating Scale (BPRS).
This trial was designed in two parts. Part A was an open-label, single-arm, single-dose Phase 1 trial with two dose levels (12 mg (n=4) and 18 mg (n=4)). […] The primary endpoint of Part B was to assess the effects on the severity of depression, as assessed by the proportion of patients in remission on day seven after dosing, defined as a MADRS total score of less than or equal to 10.

COc1ccc2[nH]cc(CCN(C)C)c2c1 [5-MeO-DMT]
MADRS Concentration Difficulties improvement (points) (12 mg n=4, 2 h): 9
MADRS Concentration Difficulties percentage improvement (12 mg n=4, 2 h): 56% and 56.25%
MADRS Concentration Difficulties summed score (12 mg n=4, 2 h): 7
MADRS Inability to Feel improvement (points) (12 mg n=4, 2 h): 7
MADRS Inability to Feel percentage improvement (12 mg n=4, 2 h): 44% and 43.75%
MADRS Inability to Feel summed score (12 mg n=4, 2 h): 9
MADRS Inner Tension improvement (points) (12 mg n=4, 2 h): 11
MADRS Inner Tension percentage improvement (12 mg n=4, 2 h): 85% and 84.62%
MADRS Inner Tension summed score (12 mg n=4, 2 h): 2
MADRS Lassitude improvement (points) (12 mg n=4, 2 h): 6
MADRS Lassitude percentage improvement (12 mg n=4, 2 h): 38% and 37.50%
MADRS Lassitude summed score (12 mg n=4, 2 h): 10
MADRS Pessimistic Thoughts improvement (points) (12 mg n=4, 2 h): 8
MADRS Pessimistic Thoughts percentage improvement (12 mg n=4, 2 h): 50%
MADRS Pessimistic Thoughts summed score (12 mg n=4, 2 h): 8
MADRS Suicidal Thoughts improvement (points) (12 mg n=4, 2 h): 5
MADRS Suicidal Thoughts percentage improvement (12 mg n=4, 2 h): 63% and 62.50%
MADRS Suicidal Thoughts summed score (12 mg n=4, 2 h): 3
BPRS Anxiety improvement (points) (12 mg n=4, 3 h): 14
BPRS Anxiety percentage improvement (12 mg n=4, 3 h): 56%
BPRS Anxiety summed score (12 mg n=4, 3 h): 11
BPRS Blunted Affect improvement (points) (12 mg n=4, 3 h): 3
BPRS Blunted Affect percentage improvement (12 mg n=4, 3 h): 27% and 27.27%
BPRS Blunted Affect summed score (12 mg n=4, 3 h): 8
BPRS Emotional Withdrawal improvement (points) (12 mg n=4, 3 h): 2
BPRS Emotional Withdrawal percentage improvement (12 mg n=4, 3 h): 15% and 15.38%
BPRS Emotional Withdrawal summed score (12 mg n=4, 3 h): 11
BPRS Guilt Feelings improvement (points) (12 mg n=4, 3 h): 9
BPRS Guilt Feelings percentage improvement (12 mg n=4, 3 h): 50%
BPRS Guilt Feelings summed score (12 mg n=4, 3 h): 9
BPRS Tension improvement (points) (12 mg n=4, 3 h): 5
BPRS Tension percentage improvement (12 mg n=4, 3 h): 36% and 35.71%
BPRS Tension summed score (12 mg n=4, 3 h): 9
BPRS Anxiety improvement (points) (12 mg n=4, Day 1): 19
BPRS Anxiety percentage improvement (12 mg n=4, Day 1): 76%
BPRS Anxiety summed score (12 mg n=4, Day 1): 6
BPRS Blunted Affect improvement (points) (12 mg n=4, Day 1): 5
BPRS Blunted Affect percentage improvement (12 mg n=4, Day 1): 45% and 45.45%
BPRS Blunted Affect summed score (12 mg n=4, Day 1): 6
BPRS Emotional Withdrawal improvement (points) (12 mg n=4, Day 1): 5
BPRS Emotional Withdrawal percentage improvement (12 mg n=4, Day 1): 38% and 38.46%
BPRS Emotional Withdrawal summed score (12 mg n=4, Day 1): 8
BPRS Guilt Feelings improvement (points) (12 mg n=4, Day 1): 13
BPRS Guilt Feelings percentage improvement (12 mg n=4, Day 1): 72% and 72.22%
BPRS Guilt Feelings summed score (12 mg n=4, Day 1): 5
BPRS Tension improvement (points) (12 mg n=4, Day 1): 8
BPRS Tension percentage improvement (12 mg n=4, Day 1): 57% and 57.14%
BPRS Tension summed score (12 mg n=4, Day 1): 6
MADRS Concentration Difficulties improvement (points) (12 mg n=4, Day 1): 14
MADRS Concentration Difficulties percentage improvement (12 mg n=4, Day 1): 88% and 87.50%
MADRS Concentration Difficulties summed score (12 mg n=4, Day 1): 2
MADRS Inability to Feel improvement (points) (12 mg n=4, Day 1): 15
MADRS Inability to Feel percentage improvement (12 mg n=4, Day 1): 94% and 93.75%
MADRS Inability to Feel summed score (12 mg n=4, Day 1): 1
MADRS Inner Tension improvement (points) (12 mg n=4, Day 1): 10
MADRS Inner Tension percentage improvement (12 mg n=4, Day 1): 77% and 76.92%
MADRS Inner Tension summed score (12 mg n=4, Day 1): 3
MADRS Lassitude improvement (points) (12 mg n=4, Day 1): 16
MADRS Lassitude percentage improvement (12 mg n=4, Day 1): 100%
MADRS Lassitude summed score (12 mg n=4, Day 1): 0
MADRS Pessimistic Thoughts improvement (points) (12 mg n=4, Day 1): 9
MADRS Pessimistic Thoughts percentage improvement (12 mg n=4, Day 1): 56% and 56.25%
MADRS Pessimistic Thoughts summed score (12 mg n=4, Day 1): 7
MADRS Reduced Sleep improvement (points) (12 mg n=4, Day 1): 2
MADRS Reduced Sleep percentage improvement (12 mg n=4, Day 1): 17% and 16.67%
MADRS Reduced Sleep summed score (12 mg n=4, Day 1): 10
MADRS Suicidal Thoughts improvement (points) (12 mg n=4, Day 1): 3
MADRS Suicidal Thoughts percentage improvement (12 mg n=4, Day 1): 38% and 37.50%
MADRS Suicidal Thoughts summed score (12 mg n=4, Day 1): 5
BPRS Anxiety improvement (points) (12 mg n=4, Day 7): 19
BPRS Anxiety percentage improvement (12 mg n=4, Day 7): 76%
BPRS Anxiety summed score (12 mg n=4, Day 7): 6
BPRS Blunted Affect improvement (points) (12 mg n=4, Day 7): 6
BPRS Blunted Affect percentage improvement (12 mg n=4, Day 7): 55% and 54.55%
BPRS Blunted Affect summed score (12 mg n=4, Day 7): 5
BPRS Emotional Withdrawal improvement (points) (12 mg n=4, Day 7): 7
BPRS Emotional Withdrawal percentage improvement (12 mg n=4, Day 7): 54% and 53.85%
BPRS Emotional Withdrawal summed score (12 mg n=4, Day 7): 6
BPRS Guilt Feelings improvement (points) (12 mg n=4, Day 7): 13
BPRS Guilt Feelings percentage improvement (12 mg n=4, Day 7): 72% and 72.22%
BPRS Guilt Feelings summed score (12 mg n=4, Day 7): 5
BPRS Tension improvement (points) (12 mg n=4, Day 7): 8
BPRS Tension percentage improvement (12 mg n=4, Day 7): 57% and 57.14%
BPRS Tension summed score (12 mg n=4, Day 7): 6
MADRS Concentration Difficulties improvement (points) (12 mg n=4, Day 7): 13
MADRS Concentration Difficulties percentage improvement (12 mg n=4, Day 7): 81% and 81.25%
MADRS Concentration Difficulties summed score (12 mg n=4, Day 7): 3
MADRS Inability to Feel improvement (points) (12 mg n=4, Day 7): 15
MADRS Inability to Feel percentage improvement (12 mg n=4, Day 7): 94% and 93.75%
MADRS Inability to Feel summed score (12 mg n=4, Day 7): 1
MADRS Inner Tension improvement (points) (12 mg n=4, Day 7): 8
MADRS Inner Tension percentage improvement (12 mg n=4, Day 7): 62% and 61.54%
MADRS Inner Tension summed score (12 mg n=4, Day 7): 5
MADRS Lassitude improvement (points) (12 mg n=4, Day 7): 13
MADRS Lassitude percentage improvement (12 mg n=4, Day 7): 81% and 81.25%
MADRS Lassitude summed score (12 mg n=4, Day 7): 3
MADRS Pessimistic Thoughts improvement (points) (12 mg n=4, Day 7): 8
MADRS Pessimistic Thoughts percentage improvement (12 mg n=4, Day 7): 50%
MADRS Pessimistic Thoughts summed score (12 mg n=4, Day 7): 8
MADRS Reduced Sleep improvement (points) (12 mg n=4, Day 7): 6
MADRS Reduced Sleep percentage improvement (12 mg n=4, Day 7): 50%
MADRS Reduced Sleep summed score (12 mg n=4, Day 7): 6
MADRS Suicidal Thoughts improvement (points) (12 mg n=4, Day 7): 1
MADRS Suicidal Thoughts percentage improvement (12 mg n=4, Day 7): 13% and 12.50%
MADRS Suicidal Thoughts summed score (12 mg n=4, Day 7): 7
patients with MADRS remission (12 mg n=4, day seven): 50%
mean MADRS change from baseline (12 mg, day seven): −21.0
mean MADRS change from baseline, percent (12 mg, day seven): −65%
further patients with MADRS clinical response (18 mg n=4, day seven): 25%
patients with MADRS remission (18 mg n=4, day seven): 25%
mean MADRS change from baseline, percent (18 mg, day seven): −41%
patients maintaining remission (fraction) (Day 7): ⅞

From patent publication US20240108602A1, “TREATMENT OF MENTAL DISORDERS” (GH Research Ireland Limited, priority 2022, published 2024)
